The test system of test [1] is HBV (HepAD38 cells). The experiment in a line: HBV replication assay: determination of HBV DNA from the supernatants of HepAD38 cells. The test is classed as cell-based. The conditions noted are these: Hepatitis B virus, 144 h, HBV DNA in HepAD38 supernatant at day 6, qPCR, read-out: Cell activity. The method, then:
Determination of HBV DNA from the Supernatants of HepAD38 Cells
The anti-HBV activity was analysed in the stable transfected cell line HepAD38, which has been described to secrete high levels of HBV virion particles (Ladner et al., 1997). In brief, HepAD38 cells were cultured at 37° C. at 5% CO2 and 95% humidity in 200 μl maintenance medium, which was Dulbecco's modified Eagle's medium/Nutrient Mixture F-12 (Gibco, Karlsruhe), 10% fetal bovine serum (PAN Biotech Aidenbach) supplemented with 50 μg/ml penicillin/streptomycin (Gibco, Karlsruhe), 2 mM L-glutamine (PAN Biotech, Aidenbach), 400 μg/ml G418 (AppliChem, Darmstadt) and 0.3 μg/ml tetracycline. Cells were subcultured once a week in a 1:5 ratio, but were usually not passaged more than ten times. For the assay 60,000 cells were seeded in maintenance medium without any tetracycline into each well of a 96-well plate and treated with serial half-log dilutions of test compound. To minimize edge effects the outer 36 wells of the plate were not used but were filled with assay medium. On each assay plate six wells for the virus control (untreated HepAD38 cells) and six wells for the cell control (HepAD38 cells treated with 0.3 μg/ml tetracycline) were allocated, respectively. In addition, one plate set with reference inhibitors like BAY 41-4109, entecavir, and lamivudine instead of screening compounds were prepared in each experiment. In general, experiments were performed thrice in triplicates. At day 6 HBV DNA from 100 μl filtrated cell culture supernatant (AcroPrep Advance 96 Filter Plate, […] Supor membran, PALL GmbH, Dreieich) was automatically purified on the MagNa Pure LC instrument using the MagNA Pure 96 DNA and Viral NA Small Volume Kit (Roche Diagnostics, Mannheim) according to the instructions of the manufacturer. EC50 values were calculated from relative copy numbers of HBV DNA In brief, 5 μl of the 100 μl eluate containing HBV DNA were subjected to PCR LC480 Probes Master Kit (Roche) together with 1 μM antisense primer […], 0.5 μM sense primer […], 0.3 μM hybprobes […]-FL and LC640-[…]-PH (TIBMolBiol, Berlin) to a final volume of 12.5 μl. The PCR was performed on the Light Cycler 480 real time system (Roche Diagnostics, Mannheim) using the following protocol: Pre-incubation for 1 min at 95° C., amplification: 40 cycles×(10 sec at 95° C., 50 sec at 60° C., 1 sec at 70° C.), cooling for 10 sec at 40° C. Viral load was quantitated against known standards using HBV plasmid DNA of pCH-9/3091 (Nassal et al., 1990, Cell 63: 1357-1363) and the LightCycler 480 SW 1.5 software (Roche Diagnostics, Mannheim) and EC50 values were calculated using non-linear regression with GraphPad Prism 6 (GraphPad Software Inc., La Jolla, USA).
(In general: Real-time PCR tracks product formation cycle by cycle.)

For test [2], the target named is T1, HBV core protein (C-terminal truncated core protein, 149 amino acids of the N-terminal assembly domain, BODIPY-FL labelled) (UniProt P03146).
T1 construct: fused on or other part: A single cysteine added after residue 149, at position 150; It carries the BODIPY-FL maleimide label
The experiment in a line: Biochemical capsid assembly assay (fluorescence quenching). Put shortly:
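Fluorescence quenching of BODIPY-FL-labelled core dimers (1.0 to 2.0 μM) in 50 mM HEPES pH 7.5; compounds at 8 concentrations, 0.5 log-unit dilutions from top 100, 31.6 or 10 μM, 0.5% DMSO. Assembly started with NaCl to […]; fluorescence (ex 477/em 525 nm) read after 6 min. EC50 by non-linear regression.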

[3] abbreviates: assembly started with NaCl, fluorescence read after 6 min, read-out: Assembly activity.
Where [4] appears, read: read-out: Assembly activity, assembly started with NaCl, fluorescence read after 6 min.

The structures appear in SMILES notation. Where two headings read alike, the source gives them in different places. Bounds are passed on as bounds.

T1 sequence (P03146 whole entry, the tested form may be a part): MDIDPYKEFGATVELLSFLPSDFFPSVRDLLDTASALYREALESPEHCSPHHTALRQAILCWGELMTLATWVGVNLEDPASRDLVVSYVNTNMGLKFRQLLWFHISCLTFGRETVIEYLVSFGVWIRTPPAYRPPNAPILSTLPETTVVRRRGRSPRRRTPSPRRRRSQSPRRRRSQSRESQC

For `CN(C(=O)c1cnn2c1CN(C(=O)c1cc3c(Cl)cccc3[nH]1)CC2)C1(c2ncc(C(=O)O)cn2)CC1` [Example 45, 2-{1-[N-methyl-5-(4-chloro-1H-indole-2-carbonyl)-4H,5H,6H,7H-pyrazolo[1,5-a]pyrazine-3-amido]cyclopropyl}pyrimidine-5-carboxylic acid], the EC50 in test [1] fell in the range of 1 to 10 µM. For the same compound, in test [2] (setting [3]), the IC50 is under 5 µM.

For `CN(C(=O)c1onc2c1CN(C(=O)c1cc3ccccc3[nH]1)CC2)C1(c2ccc(C(=O)O)cc2)CC1` [Example 109, 4-{1-[N-methyl-5-(1H-indole-2-carbonyl)-4H,5H,6H,7H-[1,2]oxazolo[4,3-c]pyridine-3-amido]cyclopropyl}benzoic acid], the EC50 in test [1] was under 1 µM. Further, in test [2] (setting [3]), the IC50 was under 5 µM.

For `CC1Cn2cnc(C(=O)N(C)C3(c4cccc(C(=O)O)c4)CC3)c2CN1C(=O)c1cc2ccccc2[nH]1` (stereo not shown) [Example 41, 3-{1-[N-methyl-7-(1H-indole-2-carbonyl)-6-methyl-5H,6H,7H,8H-imidazo[1,5-a]pyrazine-1-amido]cyclopropyl}benzoic acid], in test [1], the EC50 is 1 to 10 µM. Besides, in test [2] (setting [4]), the IC50 was under 5 µM.

As for `CN1C(=O)c2c3c(nn2CC12CC2)CCN(C(=O)c1cc2c(Cl)cccc2[nH]1)C3` [Example 17, 12′-(4-chloro-1H-indole-2-carbonyl)-4′-methyl-4′,7′,8′,12′-tetraazaspiro[cyclopropane-1,5′-tricyclo[7.4.0.0^2′7]tridecane]-1′,8′-dien-3′-one], the EC50 in test [1] was under 1 µM. In addition, the IC50 in test [2] (setting [3]) is under 5 µM.

For `CN1C(=O)c2c3c(nn2CC12CC2)CCN(C(=O)c1cc2ccccc2[nH]1)C3` [Example 14, 12′-(1H-indole-2-carbonyl)-4′-methyl-4′,7′,8′,12′-tetraazaspiro[cyclopropane-1,5′-tricyclo[7.4.0.0^2′7]tridecane]-1′,8′-dien-3′-one], in test [1], the EC50 is under 1 µM. In addition, in test [2] (setting [3]), the IC50 is under 5 µM.

As to `CN1C(=O)c2c3c(nn2CCC12CC2)CCN(C(=O)c1cc2c(Cl)cccc2[nH]1)C3` [Example 68, 4′-(4-chloro-1H-indole-2-carbonyl)-13′-methyl-4′, 8′,9′,13′-tetraazaspiro[cyclopropane-1,12′-tricyclo[7.5.0.0^2,7]tetradecane]-1′,7′-dien-14′-one], in test [1], the EC50 was under 1 µM. Besides, the IC50 in test [2] (setting [3]) is under 5 µM.

Turning to `Cc1c(F)ccc2[nH]c(C(=O)N3CCc4onc(C(=O)N[C@H](C)C(F)(F)F)c4C3)cc12` [Example 106, 5-(5-fluoro-4-methyl-1H-indole-2-carbonyl)-N-[(2R)-1,1,1-trifluoropropan-2-yl]-4H,5H,6H,7H-[1,2]oxazolo[4,5-c]pyridine-3-carboxamide], the EC50 in test [1] is under 1 µM. For the same compound, the IC50 in test [2] (setting [3]) was under 5 µM.

For the compound `CN(C(=O)c1cnn2c1CN(C(=O)c1cc3ccccc3[nH]1)CC2)C1(c2cc(C(=O)O)on2)CC1` [Example 84], the EC50 in test [1] is under 1 µM. In test [2] (setting [4]), the IC50 is under 5 µM.

For `C[C@@H](NC(=O)c1noc2c1CN(C(=O)c1cc3c(Cl)cccc3[nH]1)CC2)C(F)(F)F` [Example 104, 5-(4-chloro-1H-indole-2-carbonyl)-N-[(2R)-1,1,1-trifluoropropan-2-yl]-4H,5H,6H,7H-[1,2]oxazolo[4,5-c]pyridine-3-carboxamide], the EC50 in test [1] is under 1 µM. The IC50 in test [2] (setting [3]) is under 5 µM.

Regarding `O=C1NC2(CC2)Cn2nc3c(c21)CN(C(=O)c1cc2ccccc2[nH]1)CC3` [Example 43, 12′-(1H-indole-2-carbonyl)-4′,7′,8′,12′-tetraazaspiro[cyclopropane-1,5′-tricyclo[7.4.0.0^2, D]tridecane]-1′,8′-dien-3′-one], in test [1], the EC50 was in the range of 1 to 10 µM. The IC50 in test [2] (setting [4]) was under 5 µM.

For the compound `CN(C(=O)c1noc2c1CN(C(=O)c1cc3ccccc3[nH]1)CC2)C1(c2ncc(C(=O)O)cn2)CC1` [Example 98, 2-{1-[N-methyl-5-(1H-indole-2-carbonyl)-4H,5H,6H,7H-[1,2]oxazolo[4,5-c]pyridine-3-amido]cyclopropyl}pyrimidine-5-carboxylic acid], the EC50 in test [1] lay within 1 to 10 µM. In addition, the IC50 in test [2] (setting [3]) is under 5 µM.

On to `CN(C(=O)c1[nH]nc2c1CN(C(=O)c1cc3cc(F)c(Cl)cc3[nH]1)CC2)C1(c2ccc(C(=O)O)cc2)CC1` [Example 55, 4-{1-[N-methyl-5-(6-chloro-5-fluoro-1H-indole-2-carbonyl)-2H,4H,5H,6H,7H-pyrazolo[4,3-c]pyridine-3-amido]cyclopropyl}benzoic acid], for which the EC50 in test [1] was in the range of 1 to 10 µM. Moreover, the IC50 in test [2] (setting [4]) is under 5 µM.

As to `COCC1(N(C)C(=O)c2noc3c2CN(C(=O)c2cc4c(F)cc(F)cc4[nH]2)CC3)CC1` [Example 6, 5-(4,6-difluoro-1H-indole-2-carbonyl)-N-[1-(methoxymethyl)cyclopropyl]-N-methyl-4H,5H,6H,7H-[1,2]oxazolo[4,5-c]pyridine-3-carboxamide], the EC50 in test [1] was under 1 µM. Moreover, the IC50 in test [2] (setting [3]) is under 5 µM.

In the case of `CN1C(=O)c2c3c(nn2CC12CC2)CCN(C(=O)c1cc2cc(F)ccc2[nH]1)C3` [Example 79, 12′-(5-fluoro-1H-indole-2-carbonyl)-4′-methyl-4′,7′, 8′,12′-tetraazaspiro[cyclopropane-1,5′-tricyclo[7.4.0.0^2,7]tridecane]-1′,8′-dien-3′-one], the EC50 in test [1] is under 1 µM. Moreover, the IC50 in test [2] (setting [4]) was under 5 µM.

Take `CN(C(=O)c1cnn2c1CN(C(=O)c1cc3cc(F)c(Cl)cc3[nH]1)CC2)C1(c2ccc(C(=O)O)cc2)CC1` [Example 50, 4-{1-[N-methyl-5-(6-chloro-5-fluoro-1H-indole-2-carbonyl)-4H,5H,6H,7H-pyrazolo[1,5-a]pyrazine-3-amido]cyclopropyl}benzoic acid]: the EC50 in test [1] was under 1 µM. Also, the IC50 in test [2] (setting [3]) was under 5 µM.

As for `Cc1c(F)ccc2[nH]c(C(=O)N3CCn4ncc(C(=O)N(C)C5(c6ccc(C(=O)O)cc6)CC5)c4C3)cc12` [Example 53, 4-{1-[N-methyl-5-(5-fluoro-4-methyl-1H-indole-2-carbonyl)-4H,5H,6H,7H-pyrazolo[1,5-a]pyrazine-3-amido]cyclopropyl}benzoic acid], the EC50 in test [1] is under 1 µM. Also, the IC50 in test [2] (setting [3]) was under 5 µM.

With `COCC1(N(C)C(=O)c2noc3c2CN(C(=O)c2cc4ccccc4[nH]2)CC3)CC1` [Example 7, 5-(1H-indole-2-carbonyl)-N-[1-(methoxymethyl)cyclopropyl]-N-methyl-4H,5H,6H,7H-[1,2]oxazolo[4,5-c]pyridine-3-carboxamide], the EC50 in test [1] was under 1 µM. In test [2] (setting [3]), the IC50 was under 5 µM.

Take `Cc1c(F)ccc2[nH]c(C(=O)N3CCc4nn5c(c4C3)C(=O)N(C)C3(CC3)C5)cc12` [Example 18, 12′-(5-fluoro-4-methyl-1H-indole-2-carbonyl)-4′-methyl-4′,7′,8′,12′-tetraazaspiro[cyclopropane-1,5′-tricyclo[7.4.0.0^2′7]tridecane]-1′,8′-dien-3′-one]: the EC50 in test [1] is under 1 µM. In test [2] (setting [3]), the IC50 is under 5 µM.

In the case of `CN(C(=O)c1noc2c1CN(C(=O)c1cc3ccccc3[nH]1)CC2)C1CC1` [Example 11, N-cyclopropyl-5-(1H-indole-2-carbonyl)-N-methyl-4H,5H,6H,7H-[1,2]oxazolo[4,5-c]pyridine-3-carboxamide], in test [1], the EC50 is under 100 µM. Besides, in test [2] (setting [3]), the IC50 was under 5 µM.

Consider `COCC1(N(C)C(=O)c2onc3c2CN(C(=O)c2cc4ccccc4[nH]2)CC3)CC1` [Example 38, 5-(1H-indole-2-carbonyl)-N-[1-(methoxymethyl)cyclopropyl]-N-methyl-4H,5H,6H,7H-[1,2]oxazolo[4,3-c]pyridine-3-carboxamide], for which the EC50 in test [1] was under 1 µM. Besides, in test [2] (setting [3]), the IC50 is under 5 µM.

Source of the values: US20220306647A1, “NOVEL INDOLE-2-CARBOXAMIDES ACTIVE AGAINST THE HEPATITUS B VIRUS (HBV)” (AICURIS GMBH & CO. KG, priority 2019, published 2022).
